Test results reported in ChEMBL document CHEMBL1201862, “PubChem BioAssay data set” (2004).
Calls of active or inactive are those of the source. Numbered stars: 1 amine (or outer) side, 2 acyl side, 3 side chain; on linkers, the order of the positions; unused ones are H or OH. Square brackets hold non-standard residues; d marks the D form. Peptide text beside a SMILES is read from it. ξ: configuration not given here. X1 = CCCCCCC[C@H](O)C[C@@H](N[*:1])[C@@H](O)C(=O)[*:2]; X3 = COc1ccc(CCCC(N[*:1])C(=O)[*:2])cc1; ξThr(3R) = C[C@@H](O)C(N)C(=O)O; NMeN = CN[C@@H](CC(N)=O)C(=O)O; X2 = C/C=C(/N[*:1])C(=O)[*:2]; Dhb = C/C=C(\N)C(=O)O; Sar = CNCC(=O)O

Tests used:
[1] = target: T1, Short transient receptor potential channel 4 (Mus musculus, UniProt Q9QUQ5); assay: mouse TRPC4 channel activators, dose response, cell-based, HEK293 TRPC4/mu-opioid, Fluo-4 calcium (AID 434937); assay type: functional
T1 sequence (Q9QUQ5 whole entry): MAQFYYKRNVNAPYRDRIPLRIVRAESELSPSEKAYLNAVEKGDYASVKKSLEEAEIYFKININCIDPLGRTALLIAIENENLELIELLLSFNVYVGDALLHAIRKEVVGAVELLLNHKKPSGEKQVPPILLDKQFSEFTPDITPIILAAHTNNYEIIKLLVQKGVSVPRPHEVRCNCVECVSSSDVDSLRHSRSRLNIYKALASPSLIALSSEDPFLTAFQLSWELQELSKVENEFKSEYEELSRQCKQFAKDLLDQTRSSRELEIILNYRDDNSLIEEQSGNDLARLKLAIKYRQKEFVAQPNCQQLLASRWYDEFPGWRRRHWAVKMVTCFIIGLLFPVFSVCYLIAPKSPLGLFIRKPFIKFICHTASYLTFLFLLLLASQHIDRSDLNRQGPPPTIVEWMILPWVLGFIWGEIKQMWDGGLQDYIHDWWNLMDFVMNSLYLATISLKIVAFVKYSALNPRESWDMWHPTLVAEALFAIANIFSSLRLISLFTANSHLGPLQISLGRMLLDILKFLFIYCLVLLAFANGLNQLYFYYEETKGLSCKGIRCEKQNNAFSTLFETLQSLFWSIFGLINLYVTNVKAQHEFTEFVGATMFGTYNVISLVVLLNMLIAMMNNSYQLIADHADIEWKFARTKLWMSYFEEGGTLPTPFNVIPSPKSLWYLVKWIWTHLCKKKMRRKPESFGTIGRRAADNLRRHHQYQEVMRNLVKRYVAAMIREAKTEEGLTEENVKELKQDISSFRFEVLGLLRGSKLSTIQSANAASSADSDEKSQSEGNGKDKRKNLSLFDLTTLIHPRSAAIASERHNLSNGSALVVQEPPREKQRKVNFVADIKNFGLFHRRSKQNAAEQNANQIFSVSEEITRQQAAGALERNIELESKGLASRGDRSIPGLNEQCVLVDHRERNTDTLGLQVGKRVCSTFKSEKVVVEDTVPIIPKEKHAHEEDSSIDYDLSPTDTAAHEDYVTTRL

[2] = inhibitors of HIV Env-driven cell fusion, dose response, cherry-pick (AID 652057); assay type: functional, cell-based
[3] = CEM21 lymphoblast cell cytotoxicity, dose response, cytotoxicity control for viral fusion inhibitor project, CellTiter-Glo luminescence, cherry-picked (AID 652042); assay type: functional, cell-based;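 note: potency for signal decrease meaning cytotoxicity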
[4] = ZM109 Env clade C HIV-1 fusion inhibitors, dose response, HeLa effector, CEM target cells, luciferase, cherry-pick (AID 652058); assay type: functional, cell-based
[5] = off-target signal loss in HeLa-CEM21 co-culture – HeLa F-luc CTL cells, cherry-picked, counter-screen for HIV-1 Env fusion inhibitor project, dose response (AID 652040); assay type: functional, cell-based;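 note: potency for signal decrease marking cytotoxic or nonspecific inhibition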
[6] = inhibitors of clade B AD8 Env fusion, dose response, cell-based, cherry-pick (AID 652062); assay type: functional;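 note: luciferase signal from cell-cell fusion driven by HIV-1 clade B AD8 Env; potency is for inhibitors of fusion seen as a drop in luminescence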
Albumin = Albumin (Bos taurus, UniProt P02769); assay: Counterscreen for inhibitors of T-cell receptor (TCR)-CD3 interaction: Fluorescence-based biochemical high throughput dose response assay to identify inhibitors of T-cell receptor (TCR)-CD3 interaction using a TAMRA-labeled BSA probe.; assay type: functional
Chain of Albumin (P02769 whole entry): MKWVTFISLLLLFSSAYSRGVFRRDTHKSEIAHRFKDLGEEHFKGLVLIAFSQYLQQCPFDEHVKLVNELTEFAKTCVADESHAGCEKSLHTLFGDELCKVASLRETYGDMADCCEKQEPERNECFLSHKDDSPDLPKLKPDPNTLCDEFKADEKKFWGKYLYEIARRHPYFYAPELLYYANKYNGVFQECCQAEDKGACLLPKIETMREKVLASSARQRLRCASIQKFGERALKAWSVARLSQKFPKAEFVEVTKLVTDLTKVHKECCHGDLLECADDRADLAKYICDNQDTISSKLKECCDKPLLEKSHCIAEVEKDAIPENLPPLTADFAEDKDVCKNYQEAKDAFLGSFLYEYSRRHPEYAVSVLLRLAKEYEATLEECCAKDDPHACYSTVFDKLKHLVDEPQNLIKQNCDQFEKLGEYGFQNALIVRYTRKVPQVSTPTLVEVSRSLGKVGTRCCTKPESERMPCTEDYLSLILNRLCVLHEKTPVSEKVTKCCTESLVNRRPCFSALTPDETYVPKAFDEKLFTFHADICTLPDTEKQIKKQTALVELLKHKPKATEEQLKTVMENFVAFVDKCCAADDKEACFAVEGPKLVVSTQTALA

[7] = target: T2, Heat shock factor protein 1 (Mus musculus, UniProt P38532); assay: inhibition of MG132-induced HSE-luciferase signal, confirmation, cell-based, NIH3T3, luminescence, dose retest (AID 2382); assay type: functional;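 note: NIH3T3 fibroblasts with HSF1-driven luciferase reporter stressed by proteasome inhibitor MG132; luminescence from HSF1-driven luciferase expression after 8 hours of MG132 stress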
T2 sequence (P38532 whole entry): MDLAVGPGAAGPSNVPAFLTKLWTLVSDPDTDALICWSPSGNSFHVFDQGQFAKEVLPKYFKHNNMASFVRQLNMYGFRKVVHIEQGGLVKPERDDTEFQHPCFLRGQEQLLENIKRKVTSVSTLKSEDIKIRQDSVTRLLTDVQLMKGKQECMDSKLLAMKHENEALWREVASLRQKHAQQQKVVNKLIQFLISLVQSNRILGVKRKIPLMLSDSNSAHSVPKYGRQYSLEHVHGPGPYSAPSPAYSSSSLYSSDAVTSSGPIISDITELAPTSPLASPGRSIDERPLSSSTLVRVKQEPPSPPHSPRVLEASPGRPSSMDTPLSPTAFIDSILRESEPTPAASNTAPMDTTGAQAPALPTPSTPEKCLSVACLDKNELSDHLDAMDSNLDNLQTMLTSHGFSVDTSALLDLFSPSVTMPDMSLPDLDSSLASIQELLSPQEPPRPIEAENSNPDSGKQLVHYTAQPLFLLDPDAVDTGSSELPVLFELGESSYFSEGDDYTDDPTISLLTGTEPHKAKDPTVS

cells [8] = assay type: functional
[9] = Shn3 3'UTR reporter inhibitors, dose response, cell-based, Clone20 osteoblasts, firefly luciferase, cherry-picked (AID 624132); assay type: functional;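 note: firefly luciferase luminescence from reporter carrying the Shn3 3'UTR in osteoblasts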
[10] = HepG2 cell cytotoxicity, dose response, cytotoxicity control for Shn3 inhibitor project, CellTiter-Glo, cherry-picked (AID 624134); assay type: functional, cell-based
Protein Wnt-3a = Protein Wnt-3a (Mus musculus, UniProt P27467); assay: Wnt3a-driven reporter signaling inhibition, dose response, selectivity assay for Gli-SUFU antagonist project, Wnt-LIGHT cells, luminescence (AID 651570); assay type: functional; conditions: read-out: IC50_Mean;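 note: Wnt-LIGHT reporter cells stimulated with conditioned medium from Wnt3a-producing cells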
Chain of Protein Wnt-3a (P27467 whole entry): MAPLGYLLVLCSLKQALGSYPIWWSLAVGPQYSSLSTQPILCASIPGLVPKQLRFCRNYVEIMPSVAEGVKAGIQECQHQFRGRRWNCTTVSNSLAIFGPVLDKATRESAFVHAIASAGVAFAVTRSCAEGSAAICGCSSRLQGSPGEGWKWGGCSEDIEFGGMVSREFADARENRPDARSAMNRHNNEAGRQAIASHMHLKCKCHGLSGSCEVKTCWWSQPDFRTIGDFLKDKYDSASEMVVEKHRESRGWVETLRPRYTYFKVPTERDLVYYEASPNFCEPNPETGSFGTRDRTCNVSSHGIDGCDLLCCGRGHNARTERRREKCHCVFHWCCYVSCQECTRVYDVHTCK

[11] = inhibitors of firefly luciferase expression or activity, dose response, H4 neuroglioma cells, luminescence (AID 1990); assay type: functional, cell-based
[12] = Luminescence Cell-Based Dose Response HTS to Identify Inhibitors of 5'UTR Stem-Loop Driven Prion Protein mRNA Translation in H4 Neuroglioblastoma Cells. [Related pubchem assays: 1827 (Project Summary), 1813 (Primary HTS)]; assay type: functional
[13] = inhibitors of SNCA 5'UTR-driven reporter translation, confirmation, H4 neuroglioma cells, luminescence (AID 1988); assay type: functional, cell-based
INS1 = assay: beta cell apoptosis inhibitors, cytokine rescue, dose response, luminescence, retest (AID 449756); assay type: functional, cell-based; conditions: Rattus norvegicus;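 note: cell death triggered by IL-1 beta plus TNF-alpha plus IFN-gamma mixture; protective hits raise ATP signal compared with cytokine alone wells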
H9c2 = assay: cells; assay type: functional, cell-based; conditions: Rattus norvegicus, H9c2, Myocardium;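 note: confirmatory concentration-response retest of ultra-high-throughput screening hits for modulation of myocardial damage; cell death induced by hydrogen peroxide oxidative stress; compound pretreatment for 60 min then peroxide exposure for 2 h; potency is for protecting the cells against peroxide damage rather than for killing them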
[14] = control 3'UTR Renilla luciferase suppression, dose response, counter-screen for Shn3 inhibitor project, cell-based, Clone20-Shn3RL, cherry-picked (AID 624133); assay type: functional
cells [15] = assay type: functional, cell-based
cells [16] = assay type: functional, cell-based; remark: listed apart in the source
[17] = target: T3, Long-chain-fatty-acid--AMP ligase FadD28 (Mycobacterium tuberculosis, UniProt P9WQ59); assay: Fluorescence polarization aasay to screen for inhibitors that compete for the binding of FadD28 to a bisubstrate Measured in Biochemical System Using Plate Reader - 2147-01_Inhibitor_Dose_CherryPick_Activity.; assay type: functional, Mycobacterium tuberculosis H37Rv
T3 sequence (P9WQ59 whole entry): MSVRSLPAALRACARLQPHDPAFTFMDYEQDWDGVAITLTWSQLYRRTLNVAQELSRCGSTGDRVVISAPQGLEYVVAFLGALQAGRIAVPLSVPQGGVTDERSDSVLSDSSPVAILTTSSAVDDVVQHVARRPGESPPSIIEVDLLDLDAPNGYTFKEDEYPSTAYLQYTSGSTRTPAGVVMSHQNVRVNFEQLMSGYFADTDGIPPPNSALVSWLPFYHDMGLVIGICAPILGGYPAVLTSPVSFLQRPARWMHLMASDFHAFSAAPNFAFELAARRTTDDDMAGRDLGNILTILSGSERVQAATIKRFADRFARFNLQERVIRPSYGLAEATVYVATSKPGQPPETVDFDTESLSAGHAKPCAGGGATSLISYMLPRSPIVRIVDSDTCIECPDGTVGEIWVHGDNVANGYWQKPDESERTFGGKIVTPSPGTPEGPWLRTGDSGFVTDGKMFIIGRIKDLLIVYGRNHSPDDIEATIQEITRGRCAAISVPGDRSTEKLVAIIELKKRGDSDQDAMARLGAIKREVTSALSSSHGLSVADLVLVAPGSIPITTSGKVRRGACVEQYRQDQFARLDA

[18] = insulin promoter down-regulators in MIN6 cells, imaging, high-content screening, mouse beta cells (AID 1628); assay type: functional
[19] = cytotoxicity in MIN6 insulinoma cells, dose response, cytotoxicity control, cell-based, mouse insulinoma (AID 2122); assay type: functional;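 note: confirmatory high-throughput counterscreen run to flag cytotoxic compounds; mouse MIN-6 beta cells carrying an insulin promoter eGFP reporter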
[20] = target: T1, Short transient receptor potential channel 4; assay: mouse TRPC4 channel inhibitors, dose response, cell-based, HEK293 TRPC4/mu-opioid, Fluo-4 calcium (AID 434942); assay type: functional;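 note: potency of inhibitors blocking the TRPC4 calcium response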

SMILES: CCOc1cc(CNCCc2c[nH]c3ccccc23)cc(Cl)c1OC
- EC50 [1]: 3.35 µM (active)
- AC50 [2]: 1.77 µM (active)
- AC50 [3]: 21.5 µM (active)
- AC50 [4]: 0.843 µM (active)
- AC50 [5]: 2.85 µM (active)
- AC50 [6]: 5.22 µM (active)

SMILES: Cc1ccc(/C=C2\SC(=S)N(CCC(=O)NNC(=O)c3ccccc3O)C2=O)cc1
- IC50 (Albumin): > 94.1 µM (inactive)

SMILES: Cc1cc(Cl)ccc1OCC(=O)N1CCCN(C(=O)COc2ccc(Cl)cc2C)CC1
- AC50 [2]: 1.98 µM (active)
- AC50 [3]: 67.3 µM (active)
- AC50 [4]: 2.8 µM (active)
- AC50 [5]: 2.71 µM (active)
- AC50 [6]: 2.45 µM (active)

SMILES: COc1ccc(CN2CCC(C(=O)Nc3ccc(Oc4cccnc4)cc3)CC2)c(C)c1C
- EC50 [7]: > 195 µM (not active)
- IC50 (cells [8]): 10.3 µM (active)
- AC50 [9]: 3.68 µM (active)
- AC50 [10]: 12.9 µM (active)
- IC50 (Protein Wnt-3a): 5.34 µM (active)

SMILES: O=C(CCN1C(=O)/C(=C\c2ccccc2)SC1=S)NNC(=O)c1ccccc1O
- IC50 (Albumin): > 94.1 µM (inactive)

SMILES: COc1ccc2nc(Nc3nc(O)cc(CSc4nc5ccccc5[nH]4)n3)nc(C)c2c1
- EC50 [11]: 5.63 µM (active)
- EC50 [12]: 10.2 µM (active)
- EC50 [13]: 10.2 µM (active)
- AC50 (INS1): 20.5 µM (active)
- IC50 (H9c2): > 79 µM (inactive)
- AC50 [2]: 2.16 µM (active)
- AC50 [3]: 5.77 µM (active)
- AC50 [4]: 3.57 µM (active)
- AC50 [5]: 3.06 µM (active)
- AC50 [6]: 4 µM (active)

SMILES: CCCCn1c(CN(C)Cc2ccccc2)nc2c1c(=O)n(C)c(=O)n2C
- AC50 [9]: 2.38 µM (active)
- AC50 [10]: 68.8 µM (active)
- AC50 [14]: 2.08 µM (active)
- IC50 (Protein Wnt-3a): 4.51 µM (active)
- AC50 [6]: 4.78 µM (active)

SMILES: CCOC(=O)C(NCCc1ccccc1)(NC(C)=O)C(F)(F)F (stereo not drawn)
- IC50 (cells [15]): > 29.9 µM (inactive)
- EC50 (cells [16]): > 29.9 µM (inactive)

SMILES: COc1ccc(-c2nnn(CC(=O)c3c[nH]c4ccccc34)n2)cc1OC
- AC50 [17]: > 100 µM (inactive)

SMILES: COc1ccc(-c2nn(C)c(=O)c3ccccc23)cc1NC(=O)COc1ccccc1
- AC50 [3]: 42.7 µM (active)
- AC50 [5]: 46.2 µM (active)

SMILES: COCCn1c(CN2CCC(Cc3ccccc3)CC2)nc2c1c(=O)n(C)c(=O)n2C
- IC50 [18]: 0.597 µM (active)
- IC50 [19]: 0.355 µM (active)
- IC50 (Protein Wnt-3a): 2.11 µM (active)

SMILES: Cc1cccc(NC(=O)CN2C(=O)N/C(=C/c3cc(C)n(-c4ccncc4)c3C)C2=O)c1
- AC50 [17]: 18.7 µM (active)

SMILES: O=C(CNC(=O)c1ccccc1Cl)N/N=C/C=C/c1ccccc1
- IC50 (cells [15]): > 29.9 µM (inactive)
- EC50 (cells [16]): > 29.9 µM (inactive)

SMILES: CC1Oc2ccccc2C=C1/C=N/Nc1ccc(C(=O)O)cc1 (stereo not drawn)
- EC50 [20]: 2.99 µM (active)
- AC50 [17]: 34.2 µM (active)

SMILES: O=C(CNC(=O)c1ccc([N+](=O)[O-])cc1)N/N=C/c1c[nH]c2ccccc12
- AC50 [17]: 30.2 µM (active)

SMILES: C/C=C1\NC(=O)[C@H](CC(N)=O)N(C)C(=O)C([C@@H](C)O)NC(=O)C(CCCc2ccc(OC)cc2)NC(=O)[C@H](C(C)C)NC(=O)/C(=C\C)NC(=O)[C@H](O)[C@@H](C[C@@H](O)CCCCCCC)NC(=O)[C@H](C)NC(=O)CN(C)C(=O)[C@H](CCC(N)=O)NC1=O (stereo partly drawn) (cyclo(A[X1][X2]V[X3][ξThr(3R)][NMeN][Dhb]Q[Sar]))
- AC50 [17]: > 100 µM (inactive)
